Values of other authors, collected in patent US20210030918A1, “COATING OF FIBERS WITH DIPEPTIDE NANOSTRUCTURES USING ULTRASONIC CAVITATION” (Ramot at Tel-Aviv University Ltd., priority 2019, published 2021).

- aqueous solubility: poor
Structure (SMILES): COc1cc(/C=C/C(=O)CC(=O)/C=C/c2ccc(O)c(OC)c2)ccc1O [Curcumin, (1E,6E)-1,7-bis(4-hydroxy-3-methoxyphenyl)-1,6-heptadiene-3,5-dione]
